Records with an inconclusive call do not appear.
Test system: M. tuberculosis H37Rv growth inhibition, 7H9 media
Assay: M. tuberculosis growth inhibition, HTS (AID 449762);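 further: bacterial growth assessed after seven days of incubation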
Settings: for IC90: measured here: IC90 growth inhibition

Row | SMILES | IC50 | IC90
1 | O=C(OCC#CCSc1nnc(-c2cccc3ccccc23)o1)c1cccs1 | 35.5 µM | 63.9 µM
2 | CCOC(=O)c1[nH]c2ccc(F)cc2c1NC(=O)CN1CCN(C/C=C/c2ccccc2)CC1 | 19.1 µM | 27.1 µM
3 | O=C(C[C@@H]1C/C=C\C[C@H](NC(=O)OCC2c3ccccc3-c3ccccc32)C(=O)OC[C@H]2CCCN2C1=O)N[C@@H](CO)Cc1ccccc1 | 16.1 µM | 28.2 µM
4 | CCOC(=O)c1nn(-c2ccc(C)cc2)c2nc(Nc3ccccc3)cc(=O)n12 | 4.1 µM | 12.7 µM
5 | COc1ccc(CNC(=O)c2c(N)n(CCCN3CCOCC3)c3nc4ccccc4nc23)cc1 | 94 µM | > 100 µM
6 | CCc1ccc(-c2csc(-c3c[nH]c4ccccc34)n2)cc1 | 10.7 µM | 21.7 µM
7 | Cc1ccc(NCCC(=O)c2ccc(Br)cc2)cc1 | 10.6 µM | 21.5 µM
8 | CCC(C)N1CCC2(CC1)N=c1c(c3c4c5c(C)c(O)c3c(O)c1=NC(=O)C(C)=CC=C[C@H](C)[C@H](O)[C@@H](C)[C@@H](O)[C@@H](C)[C@H](OC(C)=O)[C@H](C)[C@@H](OC)C=CO[C@@](C)(O5)C4=O)N2 (stereo not given in full) | < 0.2 µM | < 0.2 µM
9 | COc1ccc2c(c1)CCc1c(C(=O)Nc3c(C)n(C)n(-c4ccccc4)c3=O)noc1-2 | 14.2 µM | > 100 µM
10 | C=CCN1CC[C@]23c4c5ccc(O)c4O[C@H]2/C(=N/NC(=O)c2ccccc2)CC[C@@]3(O)[C@H]1C5 | 79.5 µM | > 100 µM
11 | CCCc1cc(NC(=O)CCl)n(-c2ccccc2)n1 | 0.7 µM | 2.29 µM
12 | CCCOC(=O)CSc1nc(N2CCOCC2)c2c(c1C#N)CC(C)(C)OC2 | 21.8 µM | 37.4 µM
13 | CN(C)c1ccc(-c2cc(O)c3ncccc3c2)cc1 | 2.55 µM | 4.17 µM
14 | CCCCN(C)S(=O)(=O)c1ccc(C(=O)Nc2nnc(-c3ccco3)o2)cc1 | 8.02 µM | 21.2 µM
15 | O=C(CSc1ccccn1)Nc1nonc1[N+](=O)[O-] | 1.45 µM | 2.25 µM
16 | COc1cccc(Nc2ccc([N+](=O)[O-])c3nonc23)c1 | 9.43 µM | 13.6 µM
17 | Cc1cc(C)n(-c2cc(C(C)(C)C)nc3c(-c4ccccc4)cnn23)n1 | 27.3 µM | 34.7 µM
18 | O=c1c2ccc(Cl)cc2nc(-c2ccc([N+](=O)[O-])cc2)n1O | 82.6 µM | > 100 µM
19 | COC(=O)C(Cc1ccc(OC(=O)c2ccc(C(F)(F)F)cc2)cc1)N1Cc2ccccc2C1=O (stereo not given) | – | > 100 µM
20 | CC1Cc2cc(-c3csc(NC(=O)Cc4cccs4)n3)ccc2N1S(C)(=O)=O (stereo not given) | 10.6 µM | 38 µM
21 | COc1cc(C)ccc1S(=O)(=O)N1CCN(C23CC4CC(CC(C4)C2)C3)CC1 | 28.8 µM | 44 µM
22 | CCN1CSC(=S)N(Cc2ccccc2)C1 | 10.5 µM | 24.1 µM

Row | SMILES | IC50 | IC90
23 | Cc1cc(/C=C\c2ccc3cc(N(C)C)ccc3[n+]2C)c(C)n1-c1ccccc1 | 1.86 µM | 3.19 µM
24 | O=c1c(Cl)nc2cc(Cl)ccc2n1CCNc1ncc(C(F)(F)F)cc1Cl | 1.3 µM | 3.89 µM
25 | O=C(Sc1nnc(-c2ccccc2)o1)N1c2ccccc2Sc2ccccc21 | – | > 100 µM
26 | Cc1ccc(-c2ccc(/C=N/c3ncn[nH]3)o2)cc1Cl | 98.8 µM | > 100 µM
27 | CCOC(=O)CCCc1ccc(/C(C)=N/NC(N)=S)cc1 | 6.5 µM | 14.7 µM
28 | CC(C)(C)c1ccc(Cn2c(=N)n(CC(O)c3ccco3)c3ccccc32)cc1 (stereo not given) | 17.6 µM | 22.2 µM
29 | O=C(CCS(=O)(=O)c1ccc(F)cc1)Nc1nc(-c2ccccn2)cs1 | 4.5 µM | 17.1 µM
30 | CCCCCCC[N+](CC)(CC)CCCCc1ccc(Cl)cc1 | 24.7 µM | 27.8 µM
31 | N#Cc1nc(-c2ccc(OCc3ccccc3)cc2)oc1NCCCn1ccnc1 | 26.7 µM | 35.5 µM
32 | c1ccc(-c2cn3c(n2)CCc2ccc4cccnc4c2-3)cc1 | 8.12 µM | 41.2 µM
33 | COC(=O)C(C)Oc1ccc2c(c1)O/C(=C\c1ccco1)C2=O (stereo not given) | 5.58 µM | 16 µM
34 | CCc1nc2ccccc2c(C(=O)Nc2cc(C)ccc2C)c1C | 13 µM | > 100 µM
35 | CN1CCN(c2ccc(C(=O)c3cn(-c4ccc(F)c(Cl)c4)nn3)cc2)CC1 | – | > 100 µM
36 | O=C(CSc1nc2ccccc2c(=O)[nH]1)NCc1ccc(Cl)cc1 | 1.09 µM | 2.7 µM
37 | CCOc1ccccc1NC(=O)C12CC3CC(C1)CC(c1ccc(C)cc1)(C3)C2 | 30.1 µM | > 100 µM
38 | CCCc1ccc2oc(C(=O)N(C)Cc3nccs3)c(C)c2c1 | 32.1 µM | 60.3 µM
39 | Oc1ccc2ccccc2c1C1Nc2cccc3cccc(c23)N1 | 75 µM | > 100 µM
40 | COc1ccc(C(=O)OCC(=O)c2ccc(Br)s2)c(OC)c1 | 26 µM | > 100 µM
41 | CC(=O)c1c(N2CCCC2)[nH]c(-c2ccccc2)nc1=S | 16.2 µM | 67.1 µM
42 | CC(C)(C)NC(=O)C(c1c[nH]c2ccccc12)N(C(=O)Cn1nnc(-c2ccc(F)cc2)n1)c1cccc(O)c1 (stereo not given) | 64 µM | > 100 µM
43 | CSc1cccc(CNC(=O)C2CCC(=O)N(Cc3cccc(C(F)(F)F)c3)C2)c1 (stereo not given) | 26.6 µM | 30.6 µM
44 | C[C@@H]1CCCCCCCCC(=O)OCCN[C@H](C)CCCCCCCCC(=O)OCCN[C@H](C)CCCCCCCCC(=O)OCCN1 | 25.2 µM | 29.4 µM

Row | SMILES | IC50 | IC90
45 | Cc1ccc(C(=O)O/N=C(\N)c2ccc(Br)cc2)cc1C | 98.9 µM | > 100 µM
46 | Cc1ccsc1/C=C1\SC(N2CCOCC2)=NC1=O | 21.9 µM | 34.1 µM
47 | Cc1onc(-c2ccccc2Cl)c1C(=O)Oc1cccc2cccnc12 | 2.84 µM | 4.24 µM
48 | CCCCCNc1nc(N2CCCC2)c2c(c1C#N)CCN(C)C2 | 83.7 µM | > 100 µM
49 | Cc1cc(C)n(-c2ccc(C(=O)Oc3ccc4c(c3)OCO4)cc2)n1 | 4.02 µM | 13.3 µM
50 | COC(=O)CCn1c(C)cc(C(=O)COc2ccccc2C(N)=O)c1C | 10.2 µM | 15.8 µM
51 | CC1(C)Cc2ccccc2C2=NNC(=O)C2=N1 | 11.2 µM | 21 µM
52 | COc1ccc(/C=N/Nc2cc(C)nc3ccc(OC)cc23)c(OC)c1 | 9.39 µM | 11.9 µM
53 | CCCN(CCC)CCNC(=O)c1cc2c(-c3ccc(Cl)cc3)nn(C)c2s1 | 19.5 µM | 27.7 µM
54 | COc1cc(CNCCc2ccccc2)cc(Cl)c1OCc1ccccc1 | 22.3 µM | 24.9 µM
55 | NNc1nc2ccc(Cl)cc2s1 | 42.5 µM | 46.6 µM
56 | Cc1ccc(-n2nc(C)c3c(C)c(CCC(=O)Nc4ccc(CN5CCCC5)cc4)c(C)nc32)cc1 | 13.4 µM | 19.9 µM
57 | Cn1nnnc1Sc1ncnc2scc(-c3cc4ccccc4o3)c12 | 0.78 µM | 7 µM
58 | N#C/C(=N/Nc1ccc(OC(F)(F)F)cc1)C(N)=S | 2.14 µM | 3.43 µM
59 | CSC(=S)N/N=C/c1ccccc1 | 10.1 µM | 12.8 µM
60 | CCOC(=O)C(C)Oc1ccc(NC(=O)C(Cl)(Cl)Cl)cc1 (stereo not given) | 2.38 µM | 5.08 µM
61 | COc1ccc(OC)c(Nc2nc(-c3sc(C)nc3C)cs2)c1 | 51.7 µM | > 100 µM
62 | CC(C)(C)c1ccc(C(=O)CSc2n[nH]c(=O)[nH]c2=O)cc1 | 7.69 µM | 25.4 µM
63 | CCOC(=O)c1cc(C)nc(Sc2ccc(C)cc2)c1C#N | 4.4 µM | 11.3 µM
64 | Cc1ccc(C2C3=C(CC(C)(C)CC3=O)N=C3c4ccccc4C(=O)C32)cc1 (stereo not given) | 66.4 µM | 90.7 µM
65 | CC1=NNC(=O)/C1=C\c1cn(-c2ccccc2)nc1-c1ccc(Cl)cc1 | 28.7 µM | 37.2 µM
66 | Cc1cc(C)c2c(CN3CCN(Cc4ccccc4)CC3)cc(=O)oc2c1C | 49.1 µM | 54.6 µM

Row | SMILES | IC50 | IC90
67 | COc1ccc(C2CC(=O)c3cnc(Nc4cc(C)cc(C)c4)nc3C2)cc1 (stereo not given) | 12.3 µM | 22.4 µM
68 | CC(C)[C@H](CO)N(Cc1cccc(F)c1)c1nc(Nc2cccc(Cl)c2)c2ncn(C(C)C)c2n1 | 23.2 µM | 35.4 µM
69 | O=C1Nc2cc(C(=O)NCCCN3CCOCC3)ccc2S/C1=C/c1cccc(Cl)c1 | 26.3 µM | 41 µM
70 | COc1ccccc1-c1cc(C(=O)NC2CCN(C)CC2)c2ccc(Cl)c(C)c2n1 | 70.9 µM | 95 µM
71 | CCCC1CCC(C(=O)Nn2c(C)nc3ccccc3c2=O)CC1 (stereo not given) | 50.1 µM | > 100 µM
72 | C=CCOc1ccc(C2C(C#N)=C(N)N(Nc3ccccc3)C3=C2C(=O)CC(C)(C)C3)cc1OC (stereo not given) | 30.1 µM | 68.2 µM
73 | COc1nc(-c2ccccc2)cc(-c2ccc(OC)c(OC)c2)n1 | 45.3 µM | > 100 µM
74 | C#CCOC(=O)/C(=C/C=C/c1ccccc1)NC(=O)c1ccccc1 | 3.82 µM | 43.3 µM
75 | Cc1c(C(=O)Oc2cccc3ccccc23)cnn1-c1ccccc1 | 23.7 µM | 26.9 µM
76 | Cc1cc(=O)oc2cc(Oc3ccc([N+](=O)[O-])cc3C(F)(F)F)ccc12 | 68.7 µM | > 100 µM
77 | CC1=C(/C=C/C(C)=C/C=C/C(C)=C/C(=O)Nc2ccc(O)cc2)C(C)(C)CCC1 | 41.9 µM | 59.8 µM
78 | Cn1c(NCC(O)c2ccccc2)nc2c1c(=O)n(Cc1ccc(Cl)c(Cl)c1)c(=O)n2C (stereo not given) | 7.51 µM | 18.1 µM
79 | CN(CC(=O)Nc1ccccc1Br)C(=O)c1cccnc1Nc1cccc(C(F)(F)F)c1 | 32 µM | 40.7 µM
80 | Clc1ccc(CCC(Cn2ccnc2)Sc2c(Cl)cccc2Cl)cc1 (stereo not given) | 7.79 µM | 14.3 µM
81 | CSc1nsc(SCC(=O)Nc2ccc(F)cc2F)n1 | 19.8 µM | 63.4 µM
82 | CSc1ccccc1C(=O)NC1CCSc2ccccc21 (stereo not given) | 9.3 µM | > 100 µM
83 | COc1cc(C2c3cc4c(cc3C(OC3OC5COC(c6cccs6)OC5C(O)C3O)C3COC(=O)C23)OCO4)cc(OC)c1O (stereo not given) | 13.1 µM | 29.5 µM
84 | CS(=O)(=O)c1ncc(Cl)c(C(=O)Nc2ccc(OC(F)F)cc2)n1 | 5.68 µM | 15.5 µM
85 | Nc1[nH]n2c(=O)cc(-c3ccccc3)nc2c1N=Nc1ccc2c(c1)OCO2 | 23.4 µM | 26.6 µM
86 | O=C(CSc1ncnc2nc[nH]c12)c1ccc(Cl)cc1 | 12.1 µM | 13.9 µM
87 | Nc1ccc(N=Nc2ccccc2)c(N)n1 | – | > 100 µM

— PubChem BioAssay AID449762 (Southern Research Specialized Biocontainment Screening …, 2010)
